{"source": "patent US9169254B2", "about": "“Spiroimidazolone derivative” (Chugai Seiyaku Kabushiki Kaisha, priority 2009, dated 2015)"}
{"target": "T1, human PTH1 receptor (Homo sapiens, UniProt Q03431)", "T1 sequence (Q03431 27-593)": "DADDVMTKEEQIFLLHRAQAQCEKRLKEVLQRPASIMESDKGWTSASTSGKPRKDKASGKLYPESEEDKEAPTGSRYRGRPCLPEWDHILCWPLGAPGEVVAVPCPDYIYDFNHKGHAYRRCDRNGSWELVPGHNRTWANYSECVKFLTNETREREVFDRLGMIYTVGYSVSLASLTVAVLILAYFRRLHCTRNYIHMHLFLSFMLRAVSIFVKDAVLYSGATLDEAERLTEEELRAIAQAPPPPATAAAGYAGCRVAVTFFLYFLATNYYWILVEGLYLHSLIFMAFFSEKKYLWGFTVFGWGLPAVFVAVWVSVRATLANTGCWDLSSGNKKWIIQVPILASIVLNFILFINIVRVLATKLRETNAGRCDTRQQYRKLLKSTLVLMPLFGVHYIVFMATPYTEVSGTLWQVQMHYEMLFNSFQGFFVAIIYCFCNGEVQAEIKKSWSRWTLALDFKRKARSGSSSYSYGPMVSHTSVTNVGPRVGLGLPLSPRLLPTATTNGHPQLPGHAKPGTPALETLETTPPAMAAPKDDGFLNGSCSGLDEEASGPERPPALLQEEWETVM", "experiment": "In vitro cAMP signal activity in HKRK-B7 cells (LLC-PK1 cells overexpressing the human PTH1 receptor)", "format": "cell-based", "conditions": "HKRK-B7 cells; compound at 1×10^−3 M; cAMP produced as percentage of that produced by hPTH(1-34) at 100 nM", "units": {"cAMP production activity (%)": "%"}}
{"smiles": "CN(C)C(=O)Nc1ccc(CCS(=O)(=O)N2CCC3(CC2)N=C(C2CCCCC2)NC3=O)c(C(F)(F)F)c1", "note": "[Compound 273, 3-{4-[2-(2-cyclohexyl-4-oxo-1,3,8-triaza-spiro[4.5]dec-1-ene-8-sulfonyl)-ethyl]-3-trifluoromethyl-phenyl}-1,1-dimethyl-urea]", "cAMP production activity (%)": 55}
{"smiles": "Cc1cc(C(=O)N2CCC(C)(O)CC2)cc(C)c1/C=C/S(=O)(=O)N1CCC2(CC1)N=C(c1ccc(Cl)c(OCC(F)(F)C(F)F)c1)NC2=O", "note": "[Compound 1229, 2-[4-chloro-3-(2,2,3,3-tetrafluoro-propoxy)-phenyl]-8-{(E)-2-[4-(4-hydroxy-4-methyl-piperidine-1-carbonyl)-2,6-dimethyl-phenyl]-ethenesulfonyl}-1,3,8-triaza-spiro[4.5]dec-1-en-4-one]", "cAMP production activity (%)": 56}
{"smiles": "O=C1NC(C2CCC(C(F)(F)F)CC2)=NC12CCN(S(=O)(=O)CCc1cccc3c1ccn3C[C@H](O)CO)CC2", "note": "(stereo partly drawn) [Compound 322, 8-{2-[1-((S)-2,3-dihydroxy-propyl)-1H-indol-4-yl]-ethanesulfonyl}-2-(4-trifluoromethyl-cyclohexyl)-1,3,8-triaza-spiro[4.5]dec-1-en-4-one]", "cAMP production activity (%)": 75}
{"smiles": "O=C1NC(C2CCCCC2)=NC12CCN(S(=O)(=O)CCc1ccc3[nH]c(=O)sc3c1)CC2", "note": "[Compound 663, 2-cyclohexyl-8-[2-(2-oxo-2,3-dihydro-benzothiazol-6-yl)-ethanesulfonyl]-1,3,8-triaza-spiro[4.5]dec-1-en-4-one]", "cAMP production activity (%)": 27}
{"smiles": "CC(=O)Nc1ccc(CCS(=O)(=O)N2CCC3(CC2)N=C(C2CCC(C(C)(C)F)CC2)NC3=O)c(C)c1", "note": "(centres unmarked) [Compound 1078, N-[4-(2-{2-[4-(1-Fluoro-1-methyl-ethyl)-cyclohexyl]-4-oxo-1,3,8-triaza-spiro[4.5]dec-1-ene-8-sulfonyl}-ethyl)-3-methyl-phenyl]-acetamide]", "cAMP production activity (%)": 74}
{"smiles": "Cc1cc(C(=O)N2CCC(O)(CF)CC2)cc(C)c1/C=C/S(=O)(=O)N1CCC2(CC1)N=C(c1cccc(C(C)(F)F)c1)NC2=O", "note": "[Compound 1267, 2-[3-(1,1-difluoro-ethyl)-phenyl]-8-{(E)-2-[4-(4-fluoromethyl-4-hydroxy-piperidine-1-carbonyl)-2,6-dimethyl-phenyl]-ethenesulfonyl}-1,3,8-triaza-spiro[4.5]dec-1-en-4-one]", "cAMP production activity (%)": 74}
{"smiles": "Cc1cc(C2=NC3(CCN(S(=O)(=O)/C=C/c4c(C)cc(C(=O)N5CCC(O)(CF)CC5)cc4C)CC3)C(=O)N2)ccc1C(F)(F)F", "note": "[Compound 1254, 8-{(E)-2-[4-(4-fluoromethyl-4-hydroxy-piperidine-1-carbonyl)-2,6-dimethyl-phenyl]-ethenesulfonyl}-2-(3-methyl-4-trifluoromethyl-phenyl)-1,3,8-triaza-spiro[4.5]dec-1-en-4-one]", "cAMP production activity (%)": 87}
{"smiles": "CC(=O)Nc1ccc(CCS(=O)(=O)N2CCC3(CC2)N=C(c2ccccc2C#N)NC3=O)c(C)c1", "note": "[Compound 908, N-(4-{2-[2-(2-cyano-phenyl)-4-oxo-1,3,8-triaza-spiro[4.5]dec-1-ene-8-sulfonyl]-ethyl}-3-methyl-phenyl)-acetamide]", "cAMP production activity (%)": 74}
{"smiles": "COc1cccc(C2=NC3(CCN(S(=O)(=O)CCc4ccc(C(=O)N(C)C)cc4C)CC3)C(=O)N2)c1", "note": "[Compound 80, 4-{2-[2-(3-methoxy-phenyl)-4-oxo-1,3,8-triaza-spiro[4.5]dec-1-ene-8-sulfonyl]-ethyl}-3,N,N-trimethyl-benzamide]", "cAMP production activity (%)": 71}
{"smiles": "CC1CCCCC1C1=NC2(CCN(S(=O)(=O)c3cccc(Cl)c3)CC2)C(=O)N1", "note": "(centres unmarked) [Compound 20, 8-(3-chloro-benzenesulfonyl)-2-(2-methyl-cyclohexyl)-1,3,8-triaza-spiro[4.5]dec-1-en-4-one]", "cAMP production activity (%)": 38}
{"smiles": "CC(=O)Nc1ccc(CCS(=O)(=O)N2CCC3(CC2)N=C(C2CCC(C(C)(C)C)CC2)NC3=O)c(C)c1", "note": "(centres unmarked) [Compound 909, N-(4-{2-[2-(4-tert-butyl-cyclohexyl)-4-oxo-1,3,8-triaza-spiro[4.5]dec-1-ene-8-sulfonyl]-ethyl}-3-methyl-phenyl)-acetamide]", "cAMP production activity (%)": 78}
{"smiles": "Cc1cc2ccc1CCS(=O)(=O)N1CCC3(CC1)N=C(NC3=O)c1cc(cc(C(F)(F)F)c1)OCC/C=C\\CCCCCN(C)C2=O", "note": "[Compound 1414]", "cAMP production activity (%)": 47}
{"smiles": "Cc1cc(S(=O)(=O)NCc2cccnc2)ccc1/C=C/S(=O)(=O)N1CCC2(CC1)N=C(c1cccc(C(F)(F)F)c1)NC2=O", "note": "[Compound 591, 3-methyl-4-{(E)-2-[4-oxo-2-(3-trifluoromethyl-phenyl)-1,3,8-triaza-spiro[4.5]dec-1-ene-8-sulfonyl]-vinyl}-N-pyridin-3-ylmethyl-benzenesulfonamide]", "cAMP production activity (%)": 34}
{"smiles": "CCCc1ccc(-c2cccc(C3=NC4(CCN(S(=O)(=O)/C=C/c5c(C)cc(N(C)C(N)=O)cc5C)CC4)C(=O)N3)c2)cc1", "note": "[Compound 1114, 1-(3,5-Dimethyl-4-{(E)-2-[4-oxo-2-(4′-propyl-biphenyl-3-yl)-1,3,8-triaza-spiro[4.5]dec-1-ene-8-sulfonyl]-vinyl}-phenyl)-1-methyl-urea]", "cAMP production activity (%)": 95}
{"smiles": "Cc1cc(C(=O)N2CCC(C)(O)CC2)cc(C)c1CCS(=O)(=O)N1CCC2(CC1)N=C(c1ccc(OC(F)(F)F)cc1)NC2=O", "note": "[Compound 1234, 8-{2-[4-(4-hydroxy-4-methyl-piperidine-1-carbonyl)-2,6-dimethyl-phenyl]-ethanesulfonyl}-2-(4-trifluoromethoxy-phenyl)-1,3,8-triaza-spiro[4.5]dec-1-en-4-one]", "cAMP production activity (%)": 114}
{"smiles": "Cc1cc(C(=O)N2CCC(O)(CF)CC2)cc(C)c1/C=C/S(=O)(=O)N1CCC2(CC1)N=C(c1ccc(F)c(Cl)c1)NC2=O", "note": "[Compound 1242, 2-(3-chloro-4-fluoro-phenyl)-8-{(E)-2-[4-(4-fluoromethyl-4-hydroxy-piperidine-1-carbonyl)-2,6-dimethyl-phenyl]-ethenesulfonyl}-1,3,8-triaza-spiro[4.5]dec-1-en-4-one]", "cAMP production activity (%)": 106}
{"smiles": "Cc1c(CCS(=O)(=O)N2CCC3(CC2)N=C(c2cccc(OC(F)(F)F)c2)NC3=O)cccc1OCCC(O)CO", "note": "(centres unmarked) [Compound 266, 8-{2-[3-(3,4-dihydroxy-butoxy)-2-methyl-phenyl]-ethanesulfonyl}-2-(3-trifluoromethoxy-phenyl)-1,3,8-triaza-spiro[4.5]dec-1-en-4-one]", "cAMP production activity (%)": 81}
{"smiles": "O=C1NC(c2cccc(C(F)(F)F)c2)=NC12CCN(S(=O)(=O)c1cc3ccccc3s1)CC2", "note": "[Compound 68, 8-(benzo[b]thiophene-2-sulfonyl)-2-(3-trifluoromethyl-phenyl)-1,3,8-triaza-spiro[4.5]dec-1-en-4-one]", "cAMP production activity (%)": 51}
{"smiles": "O=C1NC(C2CCCN(S(=O)(=O)c3ccccc3)C2)=NC12CCN(S(=O)(=O)c1cccc(Cl)c1)CC2", "note": "(centres unmarked) [Compound 41, 2-(1-benzenesulfonyl-piperidin-3-yl)-8-(3-chloro-benzenesulfonyl)-1,3,8-triaza-spiro[4.5]dec-1-en-4-one]", "cAMP production activity (%)": 21}
{"smiles": "CC(=O)N(CCO)c1ccc(/C=C/S(=O)(=O)N2CCC3(CC2)N=C(c2cccc(OC(F)(F)F)c2)NC3=O)c(C)c1", "note": "[Compound 232, N-(2-hydroxy-ethyl)-N-(3-methyl-4-{(E)-2-[4-oxo-2-(3-trifluoromethoxy-phenyl)-1,3,8-triaza-spiro[4.5]dec-1-ene-8-sulfonyl]-vinyl}-phenyl)-acetamide]", "cAMP production activity (%)": 69}
